Laboratory results taken from the Kinase Knowledgebase extract (Sharma et al. 2016).

molecular target: PIK3CA (human) (UniProt P42336); assay: Assessment of PIK3CA Kinase Activity
Sequence (P42336 whole entry, looked up): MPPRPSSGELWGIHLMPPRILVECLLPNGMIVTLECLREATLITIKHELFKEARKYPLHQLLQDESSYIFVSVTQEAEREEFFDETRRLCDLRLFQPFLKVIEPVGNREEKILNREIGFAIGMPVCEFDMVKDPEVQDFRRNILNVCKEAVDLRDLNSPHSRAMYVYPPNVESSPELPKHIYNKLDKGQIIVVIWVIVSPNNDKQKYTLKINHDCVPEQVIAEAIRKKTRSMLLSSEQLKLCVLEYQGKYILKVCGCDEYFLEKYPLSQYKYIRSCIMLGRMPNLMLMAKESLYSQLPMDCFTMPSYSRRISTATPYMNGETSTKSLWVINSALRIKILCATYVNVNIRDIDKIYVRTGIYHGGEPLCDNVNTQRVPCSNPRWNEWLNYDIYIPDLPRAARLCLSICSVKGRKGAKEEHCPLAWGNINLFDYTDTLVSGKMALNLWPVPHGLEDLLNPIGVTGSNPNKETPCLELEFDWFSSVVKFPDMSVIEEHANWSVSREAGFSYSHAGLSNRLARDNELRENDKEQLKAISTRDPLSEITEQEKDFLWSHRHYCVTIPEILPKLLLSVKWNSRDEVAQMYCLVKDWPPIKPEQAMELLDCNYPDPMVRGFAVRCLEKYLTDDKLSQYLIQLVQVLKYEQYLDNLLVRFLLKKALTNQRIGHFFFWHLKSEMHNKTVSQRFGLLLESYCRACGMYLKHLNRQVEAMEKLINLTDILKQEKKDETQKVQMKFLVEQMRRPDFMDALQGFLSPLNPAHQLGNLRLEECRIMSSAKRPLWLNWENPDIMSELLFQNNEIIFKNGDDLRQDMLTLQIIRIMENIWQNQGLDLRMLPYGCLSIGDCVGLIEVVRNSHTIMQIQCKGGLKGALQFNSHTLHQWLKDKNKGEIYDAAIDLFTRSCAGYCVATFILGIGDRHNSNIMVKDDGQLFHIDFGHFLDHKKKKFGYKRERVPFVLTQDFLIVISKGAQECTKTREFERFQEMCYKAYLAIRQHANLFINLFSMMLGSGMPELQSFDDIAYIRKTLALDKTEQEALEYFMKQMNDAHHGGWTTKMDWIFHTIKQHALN

IC50, 100 to 500 nM:
CSc1nc(Cl)c(C(C)(C)O)c(N2CCOc3c(C)cc(-c4cnc5sc(N)nc5c4)cc3C2)n1
CNc1ncnc(N2CCOc3c(C)cc(-c4cnc5sc(N)nc5c4)cc3C2)c1[N+](=O)[O-]
Cc1cc(-c2cnn(C)c2)cc2c1OCCN(c1nc(N)nc(C)c1C(C)C)C2
Cc1cc(-c2ccc(-c3ncc[nH]3)cc2)cc2c1OCCN(c1nc(N)nc(C)c1C(C)C)C2
Cc1cc(-c2cnc3sc(N)nc3c2)cc2c1OCCN(c1ncccc1C(N)=O)C2
Cc1cc(-c2cnc3sc(N)nc3c2)cc2c1OCCN(c1ncc(C(F)(F)F)c(N)n1)C2
Cc1ncc(C)c(N2CCOc3c(C)cc(-c4nnc(N)s4)cc3C2)n1
Cc1cc(-c2cnc3sc(N)nc3c2)cc2c1OCCN(c1nc(CN(C)C)ncc1CC(F)(F)F)C2

IC50, ≤ 100 nM:
COc1cncc(-c2cc(C)c3c(c2)CN(c2nc(N)nc(C)c2C(C)C)CCO3)c1
C=Cc1c(CC)nc(N)nc1N1CCOc2c(C)cc(-c3cnc4sc(N)nc4c3)cc2C1
Cc1cc(-c2cnc3sc(N)nc3c2)cc2c1OCCN(c1nc(CC#N)nc(C)c1C(C)C)C2
Cc1cc(-c2cnc3sc(N)nc3c2)cc2c1OCCN(c1nc(N)nc(C)c1CC1CC1)C2
Cc1cc(-c2cnc3sc(N)nc3c2)cc2c1OCCN(c1nc(C3CCCN3)nc(C)c1C(C)C)C2 (stereo not given)
COCCc1nc(C)c(C(C)C)c(N2CCOc3c(C)cc(-c4cnc(Cl)c(NS(C)(=O)=O)c4)cc3C2)n1
Cc1cc(-c2cnc3sc(N)nc3c2)cc2c1OCCN(c1nc(CN(C)CCF)nc(C)c1C(C)C)C2
Cc1cc(-c2cnc(Cl)c(NS(C)(=O)=O)c2)cc2c1OCCN(c1nc(N)ncc1C(F)(F)F)C2
Cc1nc(C)c(C(C)C)c(N2CCOc3c(C)cc(-c4nnc(N)s4)cc3C2)n1
Cc1cc(-c2cnc3sc(N)nc3c2)cc2c1OCCN(c1nc(N3CC(O)C3)nc(C)c1C(C)C)C2
Cc1cc(-c2cnc3sc(N)nc3c2)cc2c1OCCN(c1nc(CO)nc(C)c1C(C)C)C2
Cc1cc(-c2cnc3sc(N)nc3c2)cc2c1OCCN(c1nc(CNC3CC3)nc(C)c1C(C)C)C2
Cc1ncc(C(C)C)c(N2CCOc3c(C)cc(-c4nnc(N)s4)cc3C2)n1
Cc1cc(-c2cnc3sc(N)nc3c2)cc2c1OCCN(c1nc(N)nc(C)c1C(C)C)C2
Cc1cc(-c2ccnc(F)c2)cc2c1OCCN(c1nc(N)nc(C)c1C(C)C)C2
Cc1cc(-c2nnc(N)s2)cc2c1OCCN(c1ncncc1C(C)C)C2
Cc1cc(-c2nnc(N)s2)cc2c1OCCN(c1nc(N)nc(C)c1C(C)C)C2
Cc1cc(-c2cnc3sc(N)nc3c2)cc2c1OCCN(c1nc([C@@H]3C[C@@H](F)CN3)nc(C)c1C(C)C)C2
Cc1cc(-c2cnc3nc[nH]c3c2)cc2c1OCCN(c1nc(N)nc(C)c1C(C)C)C2
CCN(Cc1nc(C)c(C(C)C)c(N2CCOc3c(C)cc(-c4nnc(N)s4)cc3C2)n1)CC(F)F
Cc1cc(-c2cn[nH]c2)cc2c1OCCN(c1nc(N)nc(C)c1C(C)C)C2
COCCc1c(C)ncnc1N1CCOc2c(C)cc(-c3cnc4sc(N)nc4c3)cc2C1
Cc1nc2ncc(-c3cc(C)c4c(c3)CN(c3nc(CNCC(F)F)nc(C)c3C(C)C)CCO4)cc2[nH]1
Cc1nc(C)c(C(C)C)c(N2CCOc3c(C)cc(-c4cnc5sc(N)nc5c4)cc3C2)n1
CCc1cnc(CN(C)C)nc1N1CCOc2c(C)cc(-c3cnc4sc(N)nc4c3)cc2C1
Cc1cc(-c2cccc(O)c2)cc2c1OCCN(c1nc(N)nc(C)c1C(C)C)C2
Cc1cc(-c2cncc(NS(C)(=O)=O)c2)cc2c1OCCN(c1nc(N)nc(C)c1C(C)C)C2
COc1cc(-c2cnc3sc(N)nc3c2)cc2c1OCCN(c1nc(CN(C)C)nc(C)c1C(C)C)C2
Cc1cc(-c2nnc(N)s2)cc2c1OCCN(c1nc(N)ncc1C(C)C)C2
Cc1cc(-c2cnc3sc(N)nc3c2)cc2c1OCCN(c1nc(CN3CCCC3)nc(C)c1C(C)C)C2
Cc1cc(-c2cnc3nc[nH]c3c2)cc2c1OCCN(c1nc(CNCC(F)F)nc(C)c1C(C)C)C2
Cc1cc(-c2cnc3nc[nH]c3c2)cc2c1OCCN(c1nc(CN(C)CC(F)F)nc(C)c1C(C)C)C2
CNc1nc(C)c(C(C)C)c(N2CCOc3c(C)cc(-c4cnc5sc(N)nc5c4)cc3C2)n1
CCNC(=O)c1nc(C)c(C(C)C)c(N2CCOc3c(C)cc(-c4cnc5sc(N)nc5c4)cc3C2)n1
C#Cc1c(C)nc(N)nc1N1CCOc2c(C)cc(-c3cnc4sc(N)nc4c3)cc2C1
CCc1c(C)nc(N)nc1N1CCOc2c(C)cc(-c3cnc4sc(N)nc4c3)cc2C1
Cc1cc(-c2cnc3sc(N)nc3c2)cc2c1OCCN(c1nc(C(C)O)nc(C)c1C(C)C)C2 (stereo not given)
CCCc1c(C)nc(N)nc1N1CCOc2c(C)cc(-c3cnc4sc(N)nc4c3)cc2C1
Cc1cc(-c2cnc3sc(N)nc3c2)cc2c1OCCN(c1nc(N)nc3c1CC(C)(C)CC3)C2
COc1nc(C)c(C(C)C)c(N2CCOc3c(C)cc(-c4cnc5sc(N)nc5c4)cc3C2)n1
Cc1cc(-c2cnc3sc(N)nc3c2)cc2c1OCCN(c1nc(CNCCF)nc(C)c1C(C)C)C2
COCc1nc(C)c(C(C)C)c(N2CCOc3c(C)cc(-c4cnc5sc(N)nc5c4)cc3C2)n1
Cc1cc(-c2cnc3sc(N)nc3c2)cc2c1OCCN(c1nc(C(F)(F)F)nc(C)c1C(C)C)C2
COCC(C)c1c(C)nc(C)nc1N1CCOc2c(C)cc(-c3cnc4sc(N)nc4c3)cc2C1 (stereo not given)
Cc1cc(-c2cnc(N)s2)cc2c1OCCN(c1nc(N)nc(C)c1C(C)C)C2
Cc1cc(-c2cnc(Cl)c(NS(C)(=O)=O)c2)cc2c1OCCN(c1nc(CNCCF)nc(C)c1C(C)C)C2
Cc1cc(-c2cnc3sc(N)nc3c2)cc2c1OCCN(c1nc(CN(C)C(C)(C)C)nc(C)c1C(C)C)C2
Cc1cc(-c2cnc(Cl)c(NS(C)(=O)=O)c2)cc2c1OCCN(c1ncc(C(F)(F)F)c(N)n1)C2
C=Cc1c(C)ncnc1N1CCOc2c(C)cc(-c3cnc4sc(N)nc4c3)cc2C1
Cc1cc(-c2cnc3sc(N)nc3c2)cc2c1OCCN(c1nc(CF)nc(C)c1C(C)C)C2
CCc1nc(N)nc(N2CCOc3c(C)cc(-c4cnc5sc(N)nc5c4)cc3C2)c1C(C)C
Cc1cc(-c2cnc(Cl)c(NS(C)(=O)=O)c2)cc2c1OCCN(c1nc(C(N)=O)nc(C)c1C(C)C)C2
Cc1cc(-c2nnc(N)s2)cc2c1OCCN(c1nc(CN(C)CC(F)F)nc(C)c1C(C)C)C2
Cc1cc(-c2cnc3sc(N)nc3c2)cc2c1OCCN(c1nc(CNCC(F)F)nc(C)c1C(C)C)C2
Cc1cc(-c2cnc3sc(N)nc3c2)cc2c1OCCN(c1nc(CN(C)C)nc(Cl)c1C(C)C)C2
Cc1cc(-c2cnc3sc(N)nc3c2)cc2c1OCCN(c1nc(C(C)N)nc(C)c1C(C)C)C2 (stereo not given)
COc1cc(-c2cnc3sc(N)nc3c2)cc2c1OCCN(c1nc(N)nc(C)c1C(C)C)C2
